According to ChEMBL document CHEMBL1201862, “PubChem BioAssay data set” (2004):
The source made the active and inactive calls.

What was measured:
[1] = reduced cellular PGC1a acetyl-lysine signal – cell-based, cherry-picked samples, dose response (AID 720514); assay type: functional;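 note: potency may reflect raised or lowered acetylation signal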
[2] = target: Peroxisome proliferator-activated receptor gamma/Nuclear receptor corepressor 2 (Homo sapiens, UniProt P37231+Q9Y618); assay type: functional
Sequence of Peroxisome proliferator-activated receptor gamma/Nuclear receptor corepressor 2 (P37231 whole entry): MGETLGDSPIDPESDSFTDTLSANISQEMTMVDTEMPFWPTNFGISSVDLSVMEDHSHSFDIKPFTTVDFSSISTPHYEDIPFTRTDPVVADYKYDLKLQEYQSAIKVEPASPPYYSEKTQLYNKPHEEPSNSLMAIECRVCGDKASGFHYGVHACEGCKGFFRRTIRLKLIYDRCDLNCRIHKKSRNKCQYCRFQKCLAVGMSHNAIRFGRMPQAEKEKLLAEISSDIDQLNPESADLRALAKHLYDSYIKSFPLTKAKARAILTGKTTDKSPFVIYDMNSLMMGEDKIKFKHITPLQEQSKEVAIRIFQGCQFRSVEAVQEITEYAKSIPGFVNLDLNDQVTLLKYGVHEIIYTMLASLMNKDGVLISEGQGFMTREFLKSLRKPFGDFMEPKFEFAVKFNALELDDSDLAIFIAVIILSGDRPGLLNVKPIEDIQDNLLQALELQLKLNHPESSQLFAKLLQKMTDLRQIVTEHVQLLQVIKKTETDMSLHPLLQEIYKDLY
Sequence of Peroxisome proliferator-activated receptor gamma/Nuclear receptor corepressor 2 (Q9Y618 whole entry): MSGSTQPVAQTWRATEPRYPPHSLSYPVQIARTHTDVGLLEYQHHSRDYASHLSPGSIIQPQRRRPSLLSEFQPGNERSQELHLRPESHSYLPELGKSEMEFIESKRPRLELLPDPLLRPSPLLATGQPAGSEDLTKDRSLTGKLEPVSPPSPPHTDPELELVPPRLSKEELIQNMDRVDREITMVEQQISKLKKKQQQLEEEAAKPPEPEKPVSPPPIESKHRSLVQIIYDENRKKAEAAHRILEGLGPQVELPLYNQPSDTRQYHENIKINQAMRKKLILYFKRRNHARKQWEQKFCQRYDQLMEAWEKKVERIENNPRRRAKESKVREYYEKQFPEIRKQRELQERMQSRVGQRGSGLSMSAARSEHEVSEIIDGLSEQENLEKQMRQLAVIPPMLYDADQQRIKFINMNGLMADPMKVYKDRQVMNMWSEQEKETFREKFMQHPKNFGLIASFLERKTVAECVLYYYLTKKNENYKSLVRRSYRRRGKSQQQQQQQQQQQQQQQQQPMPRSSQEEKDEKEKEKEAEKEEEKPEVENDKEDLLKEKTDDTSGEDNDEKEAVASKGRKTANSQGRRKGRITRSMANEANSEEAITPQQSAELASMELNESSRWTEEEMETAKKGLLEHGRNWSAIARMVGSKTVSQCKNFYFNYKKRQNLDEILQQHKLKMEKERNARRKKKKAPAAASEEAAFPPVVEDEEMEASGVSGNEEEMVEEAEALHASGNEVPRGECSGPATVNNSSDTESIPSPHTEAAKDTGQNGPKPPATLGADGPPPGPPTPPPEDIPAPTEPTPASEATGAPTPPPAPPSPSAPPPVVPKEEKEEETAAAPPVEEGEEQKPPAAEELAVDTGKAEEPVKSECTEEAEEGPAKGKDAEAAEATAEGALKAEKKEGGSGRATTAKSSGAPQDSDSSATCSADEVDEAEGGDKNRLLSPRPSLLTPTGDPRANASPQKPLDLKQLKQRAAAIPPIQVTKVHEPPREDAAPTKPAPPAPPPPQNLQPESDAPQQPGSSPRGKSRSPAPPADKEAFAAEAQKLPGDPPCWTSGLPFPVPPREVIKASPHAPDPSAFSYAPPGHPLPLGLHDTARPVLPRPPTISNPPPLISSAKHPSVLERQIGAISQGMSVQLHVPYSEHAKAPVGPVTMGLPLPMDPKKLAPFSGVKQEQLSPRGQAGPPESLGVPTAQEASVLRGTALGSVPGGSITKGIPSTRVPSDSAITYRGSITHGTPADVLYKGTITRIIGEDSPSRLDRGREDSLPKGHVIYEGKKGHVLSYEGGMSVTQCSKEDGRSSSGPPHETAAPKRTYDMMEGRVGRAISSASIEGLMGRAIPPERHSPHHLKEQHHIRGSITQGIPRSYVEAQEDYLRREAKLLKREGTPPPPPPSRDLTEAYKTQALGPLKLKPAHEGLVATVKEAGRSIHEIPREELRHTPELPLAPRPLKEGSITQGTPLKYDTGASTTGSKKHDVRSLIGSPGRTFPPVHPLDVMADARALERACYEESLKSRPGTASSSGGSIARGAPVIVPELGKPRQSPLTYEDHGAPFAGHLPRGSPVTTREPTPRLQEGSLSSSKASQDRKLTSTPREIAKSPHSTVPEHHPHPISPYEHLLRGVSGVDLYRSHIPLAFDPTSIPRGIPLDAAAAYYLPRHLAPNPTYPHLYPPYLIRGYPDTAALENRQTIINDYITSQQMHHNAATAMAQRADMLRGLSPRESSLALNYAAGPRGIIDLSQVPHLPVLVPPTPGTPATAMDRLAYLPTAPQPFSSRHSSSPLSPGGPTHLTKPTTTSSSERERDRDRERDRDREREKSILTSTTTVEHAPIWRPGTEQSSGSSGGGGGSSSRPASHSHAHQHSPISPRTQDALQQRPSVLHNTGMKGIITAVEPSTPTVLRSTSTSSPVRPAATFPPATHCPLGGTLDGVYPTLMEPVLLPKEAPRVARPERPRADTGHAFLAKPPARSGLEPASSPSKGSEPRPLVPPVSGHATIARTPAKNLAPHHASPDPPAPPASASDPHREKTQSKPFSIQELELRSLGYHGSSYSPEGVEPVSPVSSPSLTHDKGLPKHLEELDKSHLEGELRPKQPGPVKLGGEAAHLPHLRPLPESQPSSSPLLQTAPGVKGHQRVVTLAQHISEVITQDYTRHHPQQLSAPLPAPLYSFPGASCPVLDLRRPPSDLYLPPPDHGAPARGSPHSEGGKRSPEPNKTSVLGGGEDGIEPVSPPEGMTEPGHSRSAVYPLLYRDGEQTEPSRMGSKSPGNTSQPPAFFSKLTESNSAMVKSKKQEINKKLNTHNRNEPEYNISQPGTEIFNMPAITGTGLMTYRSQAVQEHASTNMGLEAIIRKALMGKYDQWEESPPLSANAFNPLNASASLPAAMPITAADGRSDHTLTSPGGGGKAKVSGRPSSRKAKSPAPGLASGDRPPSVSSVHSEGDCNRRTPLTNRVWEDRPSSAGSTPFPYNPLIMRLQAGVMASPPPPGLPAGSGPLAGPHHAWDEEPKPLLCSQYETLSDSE

[3] = target: DNA repair and recombination protein RAD54-like (Homo sapiens, UniProt Q92698); assay: RAD54 Holliday junction migration blockers – biochemical, fluorescence, cherry-picked samples, dose series, confirmation (AID 651657); assay type: functional
Sequence of DNA repair and recombination protein RAD54-like (Q92698 whole entry): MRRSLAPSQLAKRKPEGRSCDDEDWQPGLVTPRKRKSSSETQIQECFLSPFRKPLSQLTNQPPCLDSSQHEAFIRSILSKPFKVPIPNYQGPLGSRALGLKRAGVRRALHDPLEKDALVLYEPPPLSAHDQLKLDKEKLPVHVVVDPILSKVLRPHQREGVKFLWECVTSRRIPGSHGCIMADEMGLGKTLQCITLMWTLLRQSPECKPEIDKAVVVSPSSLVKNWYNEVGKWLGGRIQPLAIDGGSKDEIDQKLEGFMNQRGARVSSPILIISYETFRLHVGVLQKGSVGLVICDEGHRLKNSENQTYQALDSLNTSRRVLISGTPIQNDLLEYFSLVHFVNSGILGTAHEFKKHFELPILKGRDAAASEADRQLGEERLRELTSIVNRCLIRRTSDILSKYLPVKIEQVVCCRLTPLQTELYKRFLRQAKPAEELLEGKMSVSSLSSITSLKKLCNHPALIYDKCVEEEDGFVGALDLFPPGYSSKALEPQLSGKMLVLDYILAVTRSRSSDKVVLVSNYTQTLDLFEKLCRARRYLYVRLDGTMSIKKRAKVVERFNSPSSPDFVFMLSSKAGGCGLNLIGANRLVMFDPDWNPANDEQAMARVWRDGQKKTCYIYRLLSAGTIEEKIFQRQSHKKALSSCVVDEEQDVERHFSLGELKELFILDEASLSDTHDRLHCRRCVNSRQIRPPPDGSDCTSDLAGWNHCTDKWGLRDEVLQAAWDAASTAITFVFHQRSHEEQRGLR

[4] = NIH3T3 cell viability loss – ATP luminescence, mouse fibroblasts, counter-screen, dose response (AID 2010); assay type: functional, cell-based;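 note: cells exposed to compound for about 90 hours before reading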
[5] = target: T1, Dual specificity protein phosphatase 3 (Homo sapiens, UniProt P51452); assay: VHR1 phosphatase inhibitors, primary screen, biochemical, absorbance, uHTS (AID 1654)
T1 sequence (P51452 whole entry): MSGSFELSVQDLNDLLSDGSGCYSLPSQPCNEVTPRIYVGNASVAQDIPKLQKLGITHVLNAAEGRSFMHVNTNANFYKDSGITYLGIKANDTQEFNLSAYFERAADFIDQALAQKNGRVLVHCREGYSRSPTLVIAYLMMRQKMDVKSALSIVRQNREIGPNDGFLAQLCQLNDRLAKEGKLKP

[6] = target: T2, Tyrosine-protein phosphatase non-receptor type 7 (Homo sapiens, UniProt P35236); assay type: functional
T2 sequence (P35236 whole entry): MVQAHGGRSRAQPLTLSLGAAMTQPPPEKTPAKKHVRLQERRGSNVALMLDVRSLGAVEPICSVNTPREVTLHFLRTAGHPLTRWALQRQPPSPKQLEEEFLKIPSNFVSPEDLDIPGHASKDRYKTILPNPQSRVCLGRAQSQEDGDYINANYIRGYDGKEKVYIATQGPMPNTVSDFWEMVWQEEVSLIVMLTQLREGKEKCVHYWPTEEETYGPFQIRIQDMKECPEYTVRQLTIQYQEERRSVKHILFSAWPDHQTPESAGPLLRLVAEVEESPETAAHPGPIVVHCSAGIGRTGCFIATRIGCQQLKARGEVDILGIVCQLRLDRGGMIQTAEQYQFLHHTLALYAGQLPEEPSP

[7] = target: Lysine-specific demethylase 4C (Homo sapiens, UniProt Q9H3R0); assay: inhibition of JMJD2C H3K9me3 demethylation – biochemical, DELFIA europium, cherry-picked samples, dose response (AID 488835); assay type: functional
Sequence of Lysine-specific demethylase 4C (Q9H3R0 whole entry): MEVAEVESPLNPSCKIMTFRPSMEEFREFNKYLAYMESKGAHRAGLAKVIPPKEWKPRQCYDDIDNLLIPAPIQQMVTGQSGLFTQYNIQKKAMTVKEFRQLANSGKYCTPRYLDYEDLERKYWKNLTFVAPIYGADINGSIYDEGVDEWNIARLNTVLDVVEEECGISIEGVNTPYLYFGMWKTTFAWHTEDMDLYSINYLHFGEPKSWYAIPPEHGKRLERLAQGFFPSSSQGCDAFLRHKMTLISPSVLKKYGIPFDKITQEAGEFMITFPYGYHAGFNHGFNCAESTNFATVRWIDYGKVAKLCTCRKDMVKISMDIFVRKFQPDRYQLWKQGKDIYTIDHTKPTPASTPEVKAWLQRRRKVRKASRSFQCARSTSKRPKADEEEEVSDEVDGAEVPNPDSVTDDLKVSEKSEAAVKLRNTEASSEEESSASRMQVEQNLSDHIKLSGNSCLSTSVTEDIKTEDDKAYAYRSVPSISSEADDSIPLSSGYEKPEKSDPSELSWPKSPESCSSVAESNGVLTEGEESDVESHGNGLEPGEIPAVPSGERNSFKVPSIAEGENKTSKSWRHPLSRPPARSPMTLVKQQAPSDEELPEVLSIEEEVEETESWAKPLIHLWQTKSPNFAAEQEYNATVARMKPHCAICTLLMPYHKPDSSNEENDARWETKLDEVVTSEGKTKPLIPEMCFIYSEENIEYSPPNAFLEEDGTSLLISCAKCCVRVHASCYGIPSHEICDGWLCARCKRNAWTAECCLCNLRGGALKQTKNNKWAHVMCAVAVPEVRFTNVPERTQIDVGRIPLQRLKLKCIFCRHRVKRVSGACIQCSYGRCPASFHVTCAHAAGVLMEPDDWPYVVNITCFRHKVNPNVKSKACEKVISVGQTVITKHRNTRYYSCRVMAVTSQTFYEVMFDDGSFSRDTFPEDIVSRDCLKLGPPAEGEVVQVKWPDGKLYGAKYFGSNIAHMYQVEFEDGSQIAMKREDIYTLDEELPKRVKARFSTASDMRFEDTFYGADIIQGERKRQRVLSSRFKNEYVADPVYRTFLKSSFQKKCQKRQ

[8] = target: Photoreceptor-specific nuclear receptor (Homo sapiens, UniProt Q9Y5X4); assay type: functional;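 note: potency for compounds that break the NR2E3 corepressor complex and count as activators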
[9] = microbe, parasite or virus in culture; assay type: functional; conditions: Mycobacterium tuberculosis
[10] = Intein inhibitors as potential Tuberculosis drugs, a cytotoxicity screen. [Related pubchem assays (depositor defined):AID2221, AID2223, AID434968, AID435010, AID449749, AID449750, AID489010]; assay type: functional
[11] = system: INS1; assay: INS-1E survival protection against cytokine death – cell-based, luminescence, retest, dose response (AID 449756); assay type: functional; conditions: Rattus norvegicus;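 note: cell death triggered by IL-1 beta plus TNF-alpha plus IFN-gamma mixture; protective hits raise ATP signal compared with cytokine alone wells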
[12] = HPDE-C7 pancreatic duct cell viability loss – fluorescence, HTS (AID 430); assay type: functional, cell-based; conditions: Homo sapiens
[13] = target: T1, Dual specificity protein phosphatase 3; assay: VHR1 phosphatase inhibitors, biochemical (AID 1878)
[14] = target: Ras and Rab interactor 1/Tyrosine-protein kinase ABL1 (Homo sapiens, UniProt P00519+Q13671); assay type: functional;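 note: biochemical TR-FRET dose-response test measuring inhibition of binding between Rin1 and Abl proteins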
[15] = target: T3, Dual specificity protein phosphatase 6 (Rattus norvegicus, UniProt Q64346); assay: inhibition of rat DUSP6 enzyme activity – biochemical, in vitro, primary screen (AID 425)
T3 sequence (Q64346 whole entry): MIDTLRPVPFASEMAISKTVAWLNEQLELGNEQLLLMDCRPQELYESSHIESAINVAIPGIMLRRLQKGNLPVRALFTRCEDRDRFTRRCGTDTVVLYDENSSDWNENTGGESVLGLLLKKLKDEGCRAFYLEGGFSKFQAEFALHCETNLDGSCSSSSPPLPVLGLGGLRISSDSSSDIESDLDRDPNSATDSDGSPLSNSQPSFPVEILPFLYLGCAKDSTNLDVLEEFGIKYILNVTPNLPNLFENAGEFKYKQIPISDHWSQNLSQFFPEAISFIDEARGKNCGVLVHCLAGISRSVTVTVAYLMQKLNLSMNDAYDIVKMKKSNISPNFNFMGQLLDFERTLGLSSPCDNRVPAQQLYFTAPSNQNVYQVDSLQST

[16] = HEK-293T viability loss after treatment – luminescence, T-cell screen hits, cytotoxicity control for TCR NF-kB inhibitor project, dose response (AID 489026); assay type: functional, cell-based;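 note: cells exposed to compound about 14 hours before the viability readout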
[17] = viability loss of HPDE-C7K cells – cell-based, fluorescence, HTS, primary screen (AID 431); assay type: functional; conditions: Homo sapiens
[18] = Trypanosoma cruzi growth suppression in host cells – NIH3T3 host cells, beta-gal luminescence, confirmation (AID 2044); assay type: functional, cell-based;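 note: intracellular parasites grown in NIH/3T3 mouse fibroblasts as host cells; luminescent beta-galactosidase reporter signal from transgenic T. cruzi replicating inside host cells; inhibitors lower the luminescence signal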
[19] = target: Lysine-specific demethylase 4A (Homo sapiens, UniProt O75164); assay: inhibition of JMJD2A H3K9me3 demethylation – biochemical, DELFIA europium, cherry-picked samples, selectivity assay for GASC-1 inhibitor project, dose response (AID 488840)
[20] = cytotoxicity toward MDA-MB-231 breast cancer cells – cell-based, CellTiter-Glo luminescence, cherry-pick, cytotoxicity control for RAD54 inhibitor project, dose response (AID 651692); assay type: functional
[21] = target: T4, Replicative DNA helicase DnaB (Mycobacterium tuberculosis, UniProt P9WMR3); assay: DnaB intein splicing inhibitors, dose response, biochemical, cell-free fluorescence (AID 449749); assay type: functional
T4 sequence (P9WMR3 whole entry): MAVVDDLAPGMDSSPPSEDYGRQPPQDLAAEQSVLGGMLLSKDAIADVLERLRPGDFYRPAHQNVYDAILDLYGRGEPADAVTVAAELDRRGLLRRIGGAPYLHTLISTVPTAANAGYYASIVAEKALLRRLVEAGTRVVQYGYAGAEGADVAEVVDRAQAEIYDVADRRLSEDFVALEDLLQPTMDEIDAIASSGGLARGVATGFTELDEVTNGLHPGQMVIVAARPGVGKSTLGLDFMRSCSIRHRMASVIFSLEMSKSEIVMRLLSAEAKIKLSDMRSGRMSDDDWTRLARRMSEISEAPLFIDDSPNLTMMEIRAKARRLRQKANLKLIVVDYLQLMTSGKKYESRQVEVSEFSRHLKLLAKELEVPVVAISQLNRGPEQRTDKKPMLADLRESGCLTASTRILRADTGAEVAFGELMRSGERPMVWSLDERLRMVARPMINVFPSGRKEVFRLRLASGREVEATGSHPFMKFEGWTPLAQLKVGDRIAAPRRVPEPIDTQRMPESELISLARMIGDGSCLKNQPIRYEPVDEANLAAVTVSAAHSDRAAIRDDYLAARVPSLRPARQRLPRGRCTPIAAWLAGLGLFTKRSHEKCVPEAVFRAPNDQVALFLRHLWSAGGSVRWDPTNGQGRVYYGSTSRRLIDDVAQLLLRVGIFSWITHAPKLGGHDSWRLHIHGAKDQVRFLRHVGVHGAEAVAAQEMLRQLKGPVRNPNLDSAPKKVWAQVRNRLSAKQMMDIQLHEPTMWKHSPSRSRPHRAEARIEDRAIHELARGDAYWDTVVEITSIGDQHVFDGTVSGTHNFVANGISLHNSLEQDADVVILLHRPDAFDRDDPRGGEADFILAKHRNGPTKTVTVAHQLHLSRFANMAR

[22] = target: T5, Mannose-6-phosphate isomerase (Homo sapiens, UniProt P34949); assay: phosphomannose isomerase inhibition – biochemical, fluorescence intensity, confirmation (AID 1535)
T5 sequence (P34949 whole entry): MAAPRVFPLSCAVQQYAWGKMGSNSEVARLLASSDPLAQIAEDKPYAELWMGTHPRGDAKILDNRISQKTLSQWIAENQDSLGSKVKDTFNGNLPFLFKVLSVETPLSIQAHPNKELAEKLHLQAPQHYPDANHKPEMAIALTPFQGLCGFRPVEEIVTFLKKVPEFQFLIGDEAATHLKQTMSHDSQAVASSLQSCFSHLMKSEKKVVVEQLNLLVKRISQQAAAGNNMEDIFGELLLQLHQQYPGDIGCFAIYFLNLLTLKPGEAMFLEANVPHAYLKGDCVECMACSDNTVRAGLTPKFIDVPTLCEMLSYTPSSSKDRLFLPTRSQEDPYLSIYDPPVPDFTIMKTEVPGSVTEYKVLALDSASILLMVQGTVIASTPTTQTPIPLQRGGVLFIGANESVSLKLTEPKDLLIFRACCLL

[23] = target: Phosphoethanolamine/phosphocholine phosphatase (Homo sapiens, UniProt Q8TCT1); assay: SAR assay for compounds that inhibit PHOSPHO1. [Related pubchem assays (depositor defined):AID1545, AID1565, AID1574]
[24] = target: Phosphomannomutase 2 (Homo sapiens, UniProt O15305); assay: Counter screen SAR assay for PMM2 inhibitors via a fluorescence intensity assay. [Related pubchem assays (depositor defined):AID1545, AID1574]

Cn1ncnc2c(=O)n(C)c(=O)nc1-2
AC50 [1]: 463 nM (active)
IC50 [2]: > 39800 nM (not active)
AC50 [3]: 1100 nM (active)
EC50 [4]: 850 nM (active)
IC50 [5]: < 980 nM (inactive)
IC50 [6]: < 1240 nM (active)
AC50 [7]: 541 nM (active)
IC50 [8]: > 39800 nM (not active)
CC50 [9]: 7980 nM (active)
CC50 [10]: 10300 nM (active)
AC50 [11]: 627 nM (active)
EC50 [12]: 470 nM (active)
IC50 [13]: 1360 nM (active)
IC50 [14]: 323 nM (active)
IC50 [15]: 2320 nM (active)
IC50 [16]: 2000 nM (active)
EC50 [17]: 640 nM (active)
EC50 [18]: 492 nM (active)
AC50 [19]: 2540 nM (active)
AC50 [20]: 1800 nM (active)
AC50 [21]: 57 nM (active)

O=c1c2c(OCC(F)(F)F)cc([N+](=O)[O-])cc2sn1-c1ccc(F)cc1
IC50 [22]: 26100 nM (active)
IC50 [23]: 577 nM (active)
IC50 [24]: > 100000 nM (inactive)
